Tested on: subjects with moderate-to-severe plaque psoriasis
Assay: Safety, adverse events, Example 2 through Week 56
Assay type: in vivo, human
Settings: 100 mg BID
Excerpt: The LTE safety analysis was based on randomized participants in Example who entered the present long-term extension study and received at least one dose of study intervention (including a partial dose) during the study period.

CC(=O)NCCCC[C@@H]1NC(=O)[C@H](Cc2c[nH]c3c(C)cccc23)NC(=O)[C@H]([C@@H](C)O)NC(=O)[C@H](CC(N)=O)NC(=O)[C@@H](NC(C)=O)C(C)(C)SSC(C)(C)[C@@H](C(=O)N[C@@H](Cc2ccc(OCCN)cc2)C(=O)N[C@@H](Cc2ccc3ccccc3c2)C(=O)NC2(C(=O)N[C@@H](CCC(=O)O)C(=O)N[C@@H](CC(N)=O)C(=O)N[C@@H](Cc3cccnc3)C(=O)N(C)CC(N)=O)CCOCC2)NC1=O [IL-23 receptor antagonist peptide, Ac-[Pen]*-N-T-[W(7-Me)]-[Lys(Ac)]-[Pen]*-Phe[4-(2-aminoethoxy)]-[2-Nal]-[THP]-E-N-[3-Pal]-Sarc-NH2 (*[Pen]-[Pen]* formdisulfidebond)]
1: Blood and lymphatic system disorders: number of subjects (through Week 56) | Bundle branch block right: number of subjects (through Week 56) | Cardiac disorders: number of subjects (through Week 56) | Depression: number of subjects (through Week 56) | Dermatitis contact: number of subjects (through Week 56) | Ear and labyrinth disorders: number of subjects (through Week 56) | Hypoacusis: number of subjects (through Week 56) | Immune system disorders: number of subjects (through Week 56) | Intertrigo: number of subjects (through Week 56) | Ketonuria: number of subjects (through Week 56) | Procedural pain: number of subjects (through Week 56) | Productive cough: number of subjects (through Week 56) | Proteinuria: number of subjects (through Week 56) | Psychiatric disorders: number of subjects (through Week 56) | Pyrexia: number of subjects (through Week 56)
4: Subjects with treatment-emergent AE: Investigations (Week 16-56) | General disorders and administration site conditions: number of subjects (through Week 56) | Respiratory, thoracic and mediastinal disorders: number of subjects (through Week 56)
2: Cough: number of subjects (through Week 56) | Fatigue: number of subjects (through Week 56) | Hyperglycemia: number of subjects (through Week 56) | Hypertension: number of subjects (through Week 56) | Metabolism and nutrition disorders: number of subjects (through Week 56) | Neoplasms benign, malignant and unspecified (incl cysts and polyps): number of subjects (through Week 56) | Oedema peripheral: number of subjects (through Week 56) | Psoriasis: number of subjects (through Week 56) | Renal and urinary disorders: number of subjects (through Week 56)
0: Subjects with treatment-emergent AE: Headache (Week 16-56) | Subjects with treatment-emergent AE: Meniscus injury (Week 16-56) | Subjects with treatment-emergent AE: Sinusitis (Week 16-56) | Subjects with treatment-emergent AE: Vomiting (Week 16-56) | Subjects with treatment-emergent serious AE: Cardiac disorders (Week 16-56) | Subjects with treatment-emergent serious AE: Cerebrovascular accident (Week 16-56) | Subjects with treatment-emergent serious AE: Coronary artery disease (Week 16-56) | Subjects with treatment-emergent serious AE: Diverticulitis (Week 16-56) | Subjects with treatment-emergent serious AE: Foot deformity (Week 16-56) | Subjects with treatment-emergent serious AE: General disorders and administration site conditions (Week 16-56) | Subjects with treatment-emergent serious AE: Infections and infestations (Week 16-56) | Subjects with treatment-emergent serious AE: Injury, poisoning and procedural complications (Week 16-56) | Subjects with treatment-emergent serious AE: Intervertebral disc protrusion (Week 16-56) | Subjects with treatment-emergent serious AE: Ligament injury (Week 16-56) | Subjects with treatment-emergent serious AE: Musculoskeletal and connective tissue disorders (Week 16-56) | Subjects with treatment-emergent serious AE: Nervous system disorders (Week 16-56) | Subjects with treatment-emergent serious AE: Non-cardiac chest pain (Week 16-56) | Subjects with treatment-emergent serious AE: Respiratory, thoracic and mediastinal disorders (Week 16-56) | Subjects with treatment-emergent serious AE: Tonsillar hypertrophy (Week 16-56) | Subjects with treatment-emergent serious AE: Ventricular dysfunction (Week 16-56) | Acrochordon: number of subjects (through Week 56) | Actinic keratosis: number of subjects (through Week 56) | Alopecia: number of subjects (through Week 56) | Asthenia: number of subjects (through Week 56) | Asthma: number of subjects (through Week 56) | Atrioventricular block first degree: number of subjects (through Week 56) | Basal cell carcinoma: number of subjects (through Week 56) | Bronchitis chronic: number of subjects (through Week 56) | Chills: number of subjects (through Week 56) | Cholelithiasis: number of subjects (through Week 56) | Chronic obstructive pulmonary disease: number of subjects (through Week 56) | Coronary artery disease: number of subjects (through Week 56) | Decreased appetite: number of subjects (through Week 56) | Dermal cyst: number of subjects (through Week 56) | Dermatitis acneiform: number of subjects (through Week 56) | Diabetes mellitus: number of subjects (through Week 56) | Diffuse alopecia: number of subjects (through Week 56) | Dysuria: number of subjects (through Week 56) | Endocrine disorders: number of subjects (through Week 56) | Eye disorders: number of subjects (through Week 56) | Eyelid skin dryness: number of subjects (through Week 56) | Goiter: number of subjects (through Week 56) | Haemochromatosis: number of subjects (through Week 56) | Hand dermatitis: number of subjects (through Week 56) | Hematuria: number of subjects (through Week 56) | Hepatobiliary disorders: number of subjects (through Week 56) | Hypercholesterolemia: number of subjects (through Week 56) | Hyperlipidemia: number of subjects (through Week 56) | Hypertransaminasemia: number of subjects (through Week 56) | Hypertriglyceridemia: number of subjects (through Week 56) | Influenza like illness: number of subjects (through Week 56) | Insomnia: number of subjects (through Week 56) | Leukocyturia: number of subjects (through Week 56) | Leukopenia: number of subjects (through Week 56) | Libido decreased: number of subjects (through Week 56) | Liver disorder: number of subjects (through Week 56) | Lymphopenia: number of subjects (through Week 56) | Menopause: number of subjects (through Week 56) | Nephrolithiasis: number of subjects (through Week 56) | Neutropenia: number of subjects (through Week 56) | Night sweats: number of subjects (through Week 56) | Non-cardiac chest pain: number of subjects (through Week 56) | Ocular cyst: number of subjects (through Week 56) | Oropharyngeal pain: number of subjects (through Week 56) | Pruritus: number of subjects (through Week 56) | Rash pruritic: number of subjects (through Week 56) | Renal mass: number of subjects (through Week 56) | Retinal vein occlusion: number of subjects (through Week 56)
(9.5%): General disorders and administration site conditions: % of subjects (through Week 56) | Respiratory, thoracic and mediastinal disorders: % of subjects (through Week 56)
(4.8%): Cough: % of subjects (through Week 56) | Fatigue: % of subjects (through Week 56) | Hyperglycemia: % of subjects (through Week 56) | Hypertension: % of subjects (through Week 56) | Metabolism and nutrition disorders: % of subjects (through Week 56) | Neoplasms benign, malignant and unspecified (incl cysts and polyps): % of subjects (through Week 56) | Oedema peripheral: % of subjects (through Week 56) | Psoriasis: % of subjects (through Week 56) | Renal and urinary disorders: % of subjects (through Week 56)
(2.4%): Blood and lymphatic system disorders: % of subjects (through Week 56) | Bundle branch block right: % of subjects (through Week 56) | Cardiac disorders: % of subjects (through Week 56) | Depression: % of subjects (through Week 56) | Dermatitis contact: % of subjects (through Week 56) | Ear and labyrinth disorders: % of subjects (through Week 56) | Hypoacusis: % of subjects (through Week 56) | Immune system disorders: % of subjects (through Week 56) | Intertrigo: % of subjects (through Week 56) | Ketonuria: % of subjects (through Week 56) | Procedural pain: % of subjects (through Week 56) | Productive cough: % of subjects (through Week 56) | Proteinuria: % of subjects (through Week 56) | Psychiatric disorders: % of subjects (through Week 56) | Pyrexia: % of subjects (through Week 56)
